Results from patent publication US12569457B2, “Coated beta hydroxybutyric acid crystal and methods for producing the same” (NANJING NUTRABUILDING BIO-TECH CO., LTD., priority 2021, dated 2026).

Assay: Stability test of coated BHB free acid crystal pellets/granules vs BHB free acid crystal at 25° C./60% RH (moisture and dipolymer content)
Format: physicochemical
Protocol: The coated BHB free acid crystal pellets/granules were subjected to a controlled temperature of 25° C./60% RH. The products were subjected to stability testing at the following time intervals: 0 time, 3 months, 6 months, 9 months, and 12 months.
The preparation method of such coated BHB free acid crystal pellets/granules includes the following steps: • (1) Wet granulation: Mix 3 kg of BHB free acid crystals and 0.05 kg of microcrystalline fiber, add 0.06 kg of water for wet granulation to obtain wet materials. The stirring motor rotating speed of the wet granulator is adjusted to 45 r/min, the speed of the shearing head is 800 r/min and the feeding speed of the binder is 5 r/min; • (2) Extrusion: Extrude the wet material obtained in step (1) by the extruder with the sieve plate aperture of 0.8 mm, to obtain strip materials with the same diameter. The screw speed of the extruder is adjusted to 150 r/min. […] Obtain strip materials with the same diameter; • (3) Spheronization: Sphere the strip materials obtained in step (2) at the high speed through the spheronization device to get pellets/granules of the same size and good roundness. The rotation speed of the spheronization device is adjusted to 1000 r/min and the time of spheronization is 6 min; • (4) Drying: Dry the pellets/granules prepared in step (3) to get BHB free acid crystal pellets/granules. The drying temperature is adjusted to 35° C. and the drying time is 25 min; • (5) Coating: Coating the BHB free acid crystal pellets/granules prepared in step (4) by Wurster coater with coating material, which is dissolved in water or ethanol at a solid content of 20% for use. The air inlet speed of the Wurster coater is 25 Hz and the coating temperature is 38° C., and the feeding speed of the coating liquid is 2 r/min. Drying for 15 min after coating is completed to obtain the coated BHB free acid crystal.The coated BHB free acid crystal pellets/granules were subjected to a controlled temperature of 25° C./60% RH. The products were subjected to stability testing at the following time intervals: 0 time, 3 months, 6 months, 9 months, and 12 months.

CC(O)CC(=O)O (stereo not drawn) [BHB Free Acid Crystal, beta hydroxybutyric acid]
Dipolymer Content (0 time): 0.38%
Moisture Content (0 time): 0.50%
Dipolymer Content (3 months): 1.42%
Moisture Content (3 months): 2.14%
Dipolymer Content (6 months): 4.29%
Moisture Content (6 months): 10.63%
Dipolymer Content (9 months): 10.65%
Moisture Content (9 months): 18.16%
Dipolymer Content (12 months): 29.07%
Moisture Content (12 months): 29.97%
